According to US20240066018A1 (priority 2022, published 2024):

Tests used:
[1] = tested on: primary colon cancer samples from patients with high M3 receptor expression grown as organoids
[2] = patients with irritable bowel syndrome; cited from earlier work

**Q.** For `c1ccc(C(O[C@@H]2CCCN(CCc3ccc4c(c3)OCO4)C2)c2ccccc2)cc1` [zamifenacin], which Organoid growth [1] is on record?
**A.** inhibited

**Q.** And the Colonic motor activity [2]?
**A.** reduce colonic motor activity
